Experimental data published in the RepoRT retention time repository (doi:10.1016/j.jpba.2019.06.042).

Test: Agilent ZORBAX Eclipse Plus C18, 150 × 2.1 mm, 3.5 µm, 0.2 mL/min, estimated dead time 1.7 min; A: water + 0.1% formic acid; B: acetonitrile; gradient (min/%B) 0/10 20/54 23/100 32/100
Details: stereoisomer not certain

| LC retention time [min] | SMILES |
| --- | --- |
| 18.3 | CC(C)=CCCC(C)=CCc1c(O)c(CC2=C(O)C(C)(C)C(=O)C(C(=O)C(C)C)=C2O)c(O)c(C(=O)C(C)C)c1O |
| 20.5 | O=c1ccc2ccc(O)cc2o1 |
| 5.2 | O=C(C=Cc1ccc(O)c(O)c1)OC1CC(O)(C(=O)O)CC(O)C1O (stereo not given) |
| 9.7 | CC1OC(OCC2OC(Oc3c(-c4ccc(O)c(O)c4)oc4cc(O)cc(O)c4c3=O)C(O)C(O)C2O)C(O)C(O)C1O (stereo not given) |
| 15.6 | CC1(C)C=Cc2c(cc(O)c3c(=O)c4ccc(O)c(O)c4oc23)O1 |
| 22.7 | COc1ccc2ccc(=O)oc2c1 |
| 15.9 | COc1cc2oc(-c3ccccc3)c(OC)c(=O)c2c(OC)c1OC |
| 10.2 | CC1OC(Oc2cc(O)c3c(=O)c(O)c(-c4ccc(O)cc4)oc3c2)C(O)C(O)C1O (stereo not given) |
| 18.4 | CCC(C)C(=O)c1c(O)c(C)c(O)c(CC2=C(O)C(C)(C)C(=O)C(C(=O)C(C)C)=C2O)c1O (stereo not given) |
| 29 | CC1(C)C=Cc2c(cc(O)c3c(=O)c4cccc(O)c4oc23)O1 |
| 11.6 | O=C1c2c(O)cc(O)cc2OC(c2ccc(O)c(O)c2)C1O (stereo not given) |
| 13.5 | O=c1c(O)c(-c2ccc(O)cc2)oc2cc(O)cc(O)c12 |
| 8.8 | O=c1c(OC2OC(CO)C(O)C(O)C2O)c(-c2ccc(O)c(O)c2)oc2cc(O)cc(O)c12 (stereo not given) |
| 26.9 | O=c1c2cccc(O)c2oc2cc(O)cc(O)c12 |
| 6.6 | O=C(C=Cc1ccc(O)c(O)c1)OC1C(O)CC(O)(C(=O)O)CC1O (stereo not given) |
| 23.6 | CC(C)(OC1OC(CO)C(O)C(O)C1O)C1CCC(CO)(C(O)CO)O1 (stereo not given) |
| 15.2 | COc1cc(C=CC(=O)O)cc(OC)c1O |
| 26 | COc1ccc2ccc(=O)oc2c1CC=C(C)C |

| LC retention time [min] | SMILES |
| --- | --- |
| 10.3 | CC1=CC(=O)CC(C)(C)C1(O)C=CC(C)OC1OC(CO)C(O)C(O)C1O (stereo not given) |
| 10.6 | O=c1c(O)c(-c2ccc(O)c(O)c2)oc2cc(O)cc(O)c12 |
| 12.2 | COc1c(-c2ccc(O)c(O)c2)oc2cc(O)cc(O)c2c1=O |
| 13.6 | O=c1c(-c2c(O)cc(O)c3c(=O)cc(-c4ccc(O)cc4)oc23)c(-c2ccc(O)cc2)oc2cc(O)cc(O)c12 |
| 28.8 | CC(C)=CCc1c(O)cc(O)c2c(=O)c3ccc(O)c(O)c3oc12 |
| 20.4 | CC(C)=CCC1CC2(CC=C(C)C)C(=O)C(=C(O)c3ccccc3)C(=O)C(CC=C(C)C)(C2=O)C1(C)C (stereo not given) |
| 20.1 | Cc1c(O)c(CC2=C(O)C(C)(C)C(=O)C(C(=O)C(C)C)=C2O)c(O)c(C(=O)C(C)C)c1O |
| 9.3 | O=C(O)C1OC(Oc2c(-c3ccc(O)c(O)c3)oc3cc(O)cc(O)c3c2=O)C(O)C(O)C1O (stereo not given) |
| 25.7 | COc1ccc2c(=O)c3cccc(O)c3oc2c1 |
| 14 | O=C1c2c(O)cc(O)cc2OC(c2ccc(O)cc2)C1O (stereo not given) |
| 9.9 | CC1OC(Oc2c(-c3ccc(O)c(O)c3)oc3cc(O)cc(O)c3c2=O)C(O)C(O)C1O (stereo not given) |
| 12.5 | COc1cc(O)c2c(=O)c(O)c(-c3ccc(O)cc3)oc2c1 |
| 15.4 | CCC(C)C(=O)c1c(O)c(C)c(OCC=C(C)CCC=C(C)C)c(C(C)=O)c1O (stereo not given) |
| 15 | O=C1CC(c2ccc(O)cc2)Oc2cc(O)cc(O)c21 (stereo not given) |
| 3.1 | O=C(O)C1(O)CC(O)C(O)C(O)C1 (stereo not given) |
| 31.6 | C=C(C)C1CC=C2C(O)CC(O)C(C)C2(C)C1 (stereo not given) |
| 14.9 | O=c1cc(-c2ccc(O)c(-c3c(O)cc(O)c4c(=O)cc(-c5ccc(O)cc5)oc34)c2)oc2cc(O)cc(O)c12 |
